Measured values: patent US20230102554A1 (GB002, INC., priority 2019, published 2023)

How the values were obtained:
[1] = molecular target: T1, Human PDGFRα, cytoplasmic domain (GST-PDGFRα) (Homo sapiens, UniProt P16234); assay: Human PDGFRα biochemical inhibition assay (off-chip Mobility Shift Assay)
T1 construct: made in house

[2] = molecular target: T2, Human PDGFRβ, cytoplasmic domain (GST-PDGFRβ) (Homo sapiens, UniProt P09619); assay: Human PDGFRβ biochemical inhibition assay (off-chip Mobility Shift Assay)
T2 construct: made in house
T2 sequence (P09619 with tags, fused parts or gaps): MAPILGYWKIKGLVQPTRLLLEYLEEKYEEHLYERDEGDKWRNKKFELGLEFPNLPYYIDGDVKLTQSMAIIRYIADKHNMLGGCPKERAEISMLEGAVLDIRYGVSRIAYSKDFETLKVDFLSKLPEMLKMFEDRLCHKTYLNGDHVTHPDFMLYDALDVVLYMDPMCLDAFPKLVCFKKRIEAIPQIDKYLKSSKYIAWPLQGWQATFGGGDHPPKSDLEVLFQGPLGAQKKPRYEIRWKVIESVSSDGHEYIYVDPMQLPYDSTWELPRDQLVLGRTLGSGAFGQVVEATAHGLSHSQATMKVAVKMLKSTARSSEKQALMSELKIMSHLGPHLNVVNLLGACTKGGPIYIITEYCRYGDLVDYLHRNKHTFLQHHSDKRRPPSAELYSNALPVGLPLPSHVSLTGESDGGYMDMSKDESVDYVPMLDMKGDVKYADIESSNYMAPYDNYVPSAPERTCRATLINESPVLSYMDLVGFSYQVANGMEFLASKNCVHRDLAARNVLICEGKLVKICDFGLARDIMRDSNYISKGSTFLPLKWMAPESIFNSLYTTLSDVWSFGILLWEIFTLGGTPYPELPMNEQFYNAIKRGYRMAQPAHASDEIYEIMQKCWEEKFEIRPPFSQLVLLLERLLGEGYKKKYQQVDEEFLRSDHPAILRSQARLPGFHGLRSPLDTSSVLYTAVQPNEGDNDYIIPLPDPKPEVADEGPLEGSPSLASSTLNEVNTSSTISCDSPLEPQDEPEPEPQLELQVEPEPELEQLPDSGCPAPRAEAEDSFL
Summary of the method: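 GST-tagged cytoplasmic domain (aa 557-1106) from baculovirus was incubated 1 h at room temperature with compound, CSKtide, ATP at Km and Mg²⁺ in HEPES buffer, pH 7.5. Phosphorylated and unphosphorylated peptide were separated by off-chip mobility shift, and the product ratio P/(P+S) gave percent inhibition.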

T1 sequence (P16234 550-1089 T674I): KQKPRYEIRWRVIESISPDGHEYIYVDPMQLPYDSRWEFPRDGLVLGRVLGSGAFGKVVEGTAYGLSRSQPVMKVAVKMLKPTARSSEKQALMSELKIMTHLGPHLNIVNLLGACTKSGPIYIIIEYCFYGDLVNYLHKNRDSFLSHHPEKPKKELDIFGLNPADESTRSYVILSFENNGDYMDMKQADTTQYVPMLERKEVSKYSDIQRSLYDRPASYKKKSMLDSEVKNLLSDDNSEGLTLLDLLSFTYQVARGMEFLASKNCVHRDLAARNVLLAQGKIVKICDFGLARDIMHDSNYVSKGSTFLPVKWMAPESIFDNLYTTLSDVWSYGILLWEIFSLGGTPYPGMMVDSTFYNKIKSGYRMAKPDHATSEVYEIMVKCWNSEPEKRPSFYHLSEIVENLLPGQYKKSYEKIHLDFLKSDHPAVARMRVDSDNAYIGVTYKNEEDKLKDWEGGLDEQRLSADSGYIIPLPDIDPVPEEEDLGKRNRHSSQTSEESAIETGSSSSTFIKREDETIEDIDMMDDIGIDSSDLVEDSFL

| SMILES | IC50 [1] [µM] | IC50 [2] [µM] |
| --- | --- | --- |
| CCn1cc2ncc(N[C@@H](C)c3cccc(NC(=O)c4ccc(OC)nc4)c3)nc2n1 [Compound 285, (S)-N-(3-(1-((2-ethyl-2H-pyrazolo[3,4-b]pyrazin-6-yl)amino)ethyl)phenyl)-6-methoxynicotinamide] | 0.3 to 1 | ≥ 1 |
| Cc1cncc(C(=O)Nc2cccc([C@H](C)Nc3cnc4cccnc4c3)c2)c1 [Compound 3, (S)—N-(3-(1-((1,5-naphthyridin-3-yl)amino)ethyl)phenyl)-5-methylnicotinamide] | < 0.3 | ≥ 1 |
| CCOCc1cncc(C(=O)Nc2cccc([C@H](C)Nc3cnc4cnn(C)c4n3)c2)c1 [Compound 230, (S)-5-(ethoxymethyl)-N-(3-(1-((1-methyl-1H-pyrazolo[3,4-b]pyrazin-6-yl)amino)ethyl)phenyl)nicotinamide] | < 0.3 | < 0.3 |
| CCn1cc2ncc(N[C@@H](C)c3cc(NC(=O)c4ccc(C5CC5)nc4)ccc3F)nc2n1 [Compound 302, (S)-6-cyclopropyl-N-(3-(1-((2-ethyl-2H-pyrazolo[3,4-b]pyrazin-6-yl)amino)ethyl)-4-fluorophenyl)nicotinamide] | < 0.3 | < 0.3 |
| CCn1cc2ncc(N[C@@H](C)c3cccc(NC(=O)c4cnc(C(F)(F)F)c(C)c4)c3)nc2n1 [Compound 288, (S)-N-(3-(1-((2-ethyl-2H-pyrazolo[3,4-b]pyrazin-6-yl)amino)ethyl)phenyl)-5-methyl-6-(trifluoromethyl)nicotinamide] | < 0.3 | < 0.3 |
| CCn1cc2ncc(N[C@@H](C)c3cccc(NC(=O)c4ccc(CN5CCCC5)c(C(F)(F)F)c4)c3)nc2n1 [Compound 425, (S)-N-(3-(1-((2-ethyl-2H-pyrazolo[3,4-b]pyrazin-6-yl)amino)ethyl)phenyl)-4-(pyrrolidin-1-ylmethyl)-3-(trifluoromethyl)benzamide] | < 0.3 | < 0.3 |
| CCn1cc2ncc(N[C@@H](C)c3cccc(NC(=O)Cc4ccc(F)c(Cl)c4)c3)nc2n1 [Compound 631, (S)-2-(3-chloro-4-fluorophenyl)-N-(3-(1-((2-ethyl-2H-pyrazolo[3,4-b]pyrazin-6-yl)amino)ethyl)phenyl)acetamide] | < 0.3 | < 0.3 |
| CCn1cc2ncc(N[C@@H](C)c3cccc(NC(=O)c4ccc(Cl)c(C)c4)c3)nc2n1 [Compound 345, (S)-4-chloro-N-(3-(1-((2-ethyl-2H-pyrazolo[3,4-b]pyrazin-6-yl)amino)ethyl)phenyl)-3-methylbenzamide] | < 0.3 | < 0.3 |
| CCn1cc2ncc(N[C@@H](C)c3cc(NC(=O)Cc4cc(C)c(F)cn4)ccc3C)nc2n1 [Compound 687, (S)-N-(3-(1-((2-ethyl-2H-pyrazolo[3,4-b]pyrazin-6-yl)amino)ethyl)-4-methylphenyl)-2-(5-fluoro-4-methylpyridin-2-yl)acetamide] | < 0.3 | < 0.3 |
| CCn1cc2ncc(N[C@@H](C)c3cccc(NC(=O)c4ccc(C)c(F)c4)c3)nc2n1 [Compound 344, (S)-N-(3-(1-((2-ethyl-2H-pyrazolo[3,4-b]pyrazin-6-yl)amino)ethyl)phenyl)-3-fluoro-4-methylbenzamide] | < 0.3 | < 0.3 |
| CCn1cc2ncc(N[C@@H](C)c3cccc(NC(=O)c4cnc(N5CCOCC5)s4)c3)nc2n1 [Compound 339, (S)-N-(3-(1-((2-ethyl-2H-pyrazolo[3,4-b]pyrazin-6-yl)amino)ethyl)phenyl)-2-morpholinothiazole-5-carboxamide] | < 0.3 | 0.3 to 1 |
| Cc1c[nH]c2ncc(N[C@@H](C)c3cccc(NC(=O)c4cnc(C(F)(F)F)s4)c3)nc12 [Compound 572, (S)-N-(3-(1-((7-methyl-5H-pyrrolo[2,3-b]pyrazin-2-yl)amino)ethyl)phenyl)-2-(trifluoromethyl)thiazole-5-carboxamide] | ≥ 1 | 0.3 to 1 |
| CCn1cc2ncc(N[C@@H](C)c3cccc(NC(=O)c4cnc(C)c(C)c4)c3)nc2n1 [Compound 328, (S)-N-(3-(1-((2-ethyl-2H-pyrazolo[3,4-b]pyrazin-6-yl)amino)ethyl)phenyl)-5,6-dimethylnicotinamide] | < 0.3 | < 0.3 |
| C[C@H](Nc1cnc2cnn(C)c2n1)c1cccc(NC(=O)c2ccc(C(F)F)s2)c1 [Compound 134, (S)-5-(difluoromethyl)-N-(3-(1-((1-methyl-1H-pyrazolo[3,4-b]pyrazin-6-yl)amino)ethyl)phenyl)thiophene-2-carboxamide] | < 0.3 | < 0.3 |
| CCn1cc2ncc(N[C@@H](C)c3cccc(NC(=O)c4cnc(N5CCN(C)CC5)c(C)c4)c3)nc2n1 [Compound 396, (S)-N-(3-(1-((2-ethyl-2H-pyrazolo[3,4-b]pyrazin-6-yl)amino)ethyl)phenyl)-5-methyl-6-(4-methylpiperazin-1-yl) nicotinamide] | < 0.3 | < 0.3 |
| C[C@H](Nc1cnc2cn[nH]c2n1)c1cccc(NC(=O)c2cncc(C3CCC3)c2)c1 [Compound 96, (S)-N-(3-(1-((1H-pyrazolo[3,4-b]pyrazin-6-yl)amino)ethyl)phenyl)-5-cyclobutylnicotinamide] | < 0.3 | < 0.3 |
| CCn1cc2ncc(N[C@@H](C)c3cccc(NC(=O)c4ccc(OC)c(F)c4)c3)nc2n1 [Compound 359, (S)-N-(3-(1-((2-ethyl-2H-pyrazolo[3,4-b]pyrazin-6-yl)amino)ethyl)phenyl)-3-fluoro-4-methoxybenzamide] | < 0.3 | < 0.3 |
| CCn1cc2ncc(N[C@@H](C)c3cc(NC(=O)c4ccc(Cl)c(C)c4)ccc3C)nc2n1 [Compound 508, (S)-4-chloro-N-(3-(1-((2-ethyl-2H-pyrazolo[3,4-b]pyrazin-6-yl)amino)ethyl)-4-methylphenyl)-3-methylbenzamide] | < 0.3 | < 0.3 |
| CCc1ccc(C(=O)Nc2cccc([C@H](C)Nc3cnc4cnn(C)c4n3)c2)cn1 [Compound 207, (S)-6-ethyl-N-(3-(1-((1-methyl-1H-pyrazolo[3,4-b]pyrazin-6-yl)amino)ethyl)phenyl) nicotinamide] | < 0.3 | < 0.3 |
| Cc1cc(C(=O)Nc2cccc([C@H](C)Nc3cnc4cnn(C)c4n3)c2)cnc1O [Compound 253, (S)-6-hydroxy-5-methyl-N-(3-(1-((1-methyl-1H-pyrazolo[3,4-b]pyrazin-6-yl)amino)ethyl)phenyl)nicotinamide] | < 0.3 | ≥ 1 |

The remaining lines, values ahead:

| IC50 [1] [µM] | IC50 [2] [µM] | SMILES |
| --- | --- | --- |
| < 0.3 | < 0.3 | CCn1cc2ncc(N[C@@H](C)c3cccc(NC(=O)c4ccc(CN5CCN(C)C(=O)C5)c(C)c4)c3)nc2n1 [Compound 479, (S)-N-(3-(1-((2-ethyl-2H-pyrazolo[3,4-b]pyrazin-6-yl)amino)ethyl)phenyl)-3-methyl-4-((4-methyl-3-oxopiperazin-1-yl)methyl)benzamide] |
| < 0.3 | < 0.3 | Cc1cc2ncc(N[C@@H](C)c3cc(NC(=O)c4ccc(C5CC5)nc4)ccc3F)nc2s1 [Compound 612, (S)-6-cyclopropyl-N-(4-fluoro-3-(1-((6-methylthieno[2,3-b]pyrazin-3-yl)amino)ethyl)phenyl)nicotinamide] |
| < 0.3 | < 0.3 | CSc1cc(C(=O)Nc2cccc([C@H](C)Nc3cnc4cnn(C)c4n3)c2)ccc1Cl [Compound 236, (S)-4-chloro-N-(3-(1-((1-methyl-1H-pyrazolo[3,4-b]pyrazin-6-yl)amino)ethyl)phenyl)-3-(methylthio)benzamide] |
| < 0.3 | < 0.3 | CCn1cc2ncc(N[C@@H](C)c3cccc(NC(=O)c4ccc(C5CC5)s4)c3)nc2n1 [Compound 291, (S)-5-cyclopropyl-N-(3-(1-((2-ethyl-2H-pyrazolo[3,4-b]pyrazin-6-yl)amino)ethyl)phenyl)thiophene-2-carboxamide] |
| < 0.3 | < 0.3 | Cc1cc(C(=O)Nc2cccc([C@H](C)Nc3cnc4cnn(C)c4n3)c2)ccc1C(=O)OCCN1CCOCC1 [Compound 264, 2-morpholinoethyl (S)-2-methyl-4-((3-(1-((1-methyl-1H-pyrazolo[3,4-b]pyrazin-6-yl)amino)ethyl)phenyl)carbamoyl) benzoate] |
| < 0.3 | < 0.3 | Cc1c[nH]c2ncc(N[C@@H](C)c3cccc(NC(=O)c4ccc(C5CC5)nc4)c3)nc12 [Compound 558, (S)-6-cyclopropyl-N-(3-(1-((7-methyl-5H-pyrrolo[2,3-b]pyrazin-2-yl)amino)ethyl)phenyl)nicotinamide] |
| < 0.3 | < 0.3 | CC(C)c1cc(C(=O)Nc2cccc([C@H](C)Nc3cnc4cnn(C)c4n3)c2)no1 [Compound 142, (S)-5-isopropyl-N-(3-(1-((1-methyl-1H-pyrazolo[3,4-b]pyrazin-6-yl)amino)ethyl)phenyl)isoxazole-3-carboxamide] |
| < 0.3 | < 0.3 | C[C@H](Nc1cnc2cnn(C)c2n1)c1cccc(NC(=O)c2cnc3c(ccn3C)c2)c1 [Compound 169, (S)-1-methyl-N-(3-(1-((1-methyl-1H-pyrazolo[3,4-b]pyrazin-6-yl)amino)ethyl)phenyl)-1H-pyrrolo[2,3-b] pyridine-5-carboxamide] |
| < 0.3 | < 0.3 | CCn1cc2ncc(N[C@@H](C)c3cccc(NC(=O)c4ccc(N5CCOCC5)c(C)c4)c3)nc2n1 [Compound 386, (S)-N-(3-(1-((2-ethyl-2H-pvrazolo[3,4-b]pyrazin-6-yl)amino)ethyl)phenyl)-3-methyl-4-morpholinobenzamide] |
| < 0.3 | 0.3 to 1 | CCn1cc2ncc(N[C@@H](C)c3cccc(NC(=O)c4cnc(NC(C)C)c(C)c4)c3)nc2n1 [Compound 371, (S)-N-(3-(1-((2-ethyl-2H-pyrazolo[3,4-b]pyrazin-6-yl)amino)ethyl)phenyl)-6-(isopropylamino)-5-methylnicotinamide] |
